In ChEMBL document CHEMBL4339206, “Specific stabilization of DNA G-quadruplex structures with a chemically modified complementary probe” (Bioorg Med Chem, 2019):
Activity calls are given as the source filed them. No cut-off for these calls is given here.

Tests used:
Type in all cases: nucleic-acid assay
[1] = tested on: Quadruplex DNA; test: Binding affinity to HT4-2 template G-quadruplex DNA (unknown origin) assessed as primer extension stopped right before TTAGGG-repeating at 20 to 100 uM using FAM-lablled primer P18 and dNTPs measured after 30 mins in presence of marker 2 by phosphorimaging based taq polymerase stop assay
[2] = tested on: Quadruplex DNA; test: Binding affinity to HT4-2 template G-quadruplex DNA (unknown origin) assessed as inhibition of polymerase progression at 2nt separation site at 20 to 100 uM using FAM-lablled primer P18 and dNTPs measured after 30 mins by phosphorimaging based taq polymerase stop assay
[3] = tested on: Quadruplex DNA; test: Binding affinity to HT G-quadruplex DNA (unknown origin) assessed as stabilization of parallel G-quadruplex structure at 10 to 70 uM by CD spectroscopic method
[4] = tested on: Quadruplex DNA; test: Binding affinity to HT4-2-Mut1 template G-quadruplex DNA (unknown origin) assessed as inhibition of polymerase progression at 2nt separation site at 20 to 100 uM using FAM-lablled primer P18 and dNTPs measured after 30 mins by phosphorimaging based taq polymerase stop assay
[5] = tested on: Quadruplex DNA; test: Binding affinity to HT4-2 template G-quadruplex DNA (unknown origin) at 55 degC
[6] = tested on: Quadruplex DNA; test: Binding affinity to HT4-2-Mut3 template G-quadruplex DNA (unknown origin) assessed as inhibition of polymerase progression at 2nt separation site at 20 to 100 uM using FAM-lablled primer P18 and dNTPs measured after 30 mins by phosphorimaging based taq polymerase stop assay
[7] = tested on: Quadruplex DNA; test: Binding affinity to HT4-2-Mut2 template G-quadruplex DNA (unknown origin) assessed as inhibition of polymerase progression at 2nt separation site at 20 to 100 uM using FAM-lablled primer P18 and dNTPs measured after 30 mins by phosphorimaging based taq polymerase stop assay
[8] = tested on: Quadruplex DNA; test: Binding affinity to HT G-quadruplex DNA (unknown origin) measured after 5 mins by UV-visible absorption titration method

Activity [1]: Active
inhibition [2]: Active
Activity [3]: Active
inhibition [4]: inactive
Activity [5]: inactive
inhibition [6]: inactive
inhibition [7]: inactive
K [8]: 2.1 ×10⁵ /M
SMILES: [N-]=[N+]=NCCCC[N+]1(CCOc2ccc(/N=N/c3ccc(OCC[N+]4(CCCCN=[N+]=[N-])CCCCC4)cc3)cc2)CCCCC1
